Where two headings read alike, the source gives them in different places.

The target of assay [1] is T1, human D2-long dopamine receptor (Homo sapiens, UniProt P14416).
T1 construct: expressed in transfected cells
Briefly: Binding in cloned human D2 receptors in HEK cells. The settings on record: 125I-IABN. An excerpt:
(§1) Human dopamine D2-long (“D2”) and D3 ([…]) receptors were expressed in HEK cells. In brief, stably transfected HEK cells expressing the human D2-long and the D3 dopamine receptor were developed using the pIRES bicistronic expression vector (CLONTECH; Palo Alto, Calif.). […] For comparison, human dopamine D4 (“D4”) receptors were obtained from HEK 293 cells stably transfected with a PCR product o'f a human cDNA coding for the D4.4 form of the human D4 dopamine receptor.

Assay [2] has as its target T2, human D3 dopamine receptor (Homo sapiens, UniProt P35462).
T2 construct: expressed in transfected cells
As to the kind of experiment: Binding in cloned human D3 receptors in HEK cells. As to conditions: for D2/D3: ratio of D2 to D3 binding values.
Description: as §1

In assay [3] the target is T3, D4.4 form of the human D4 dopamine receptor (Homo sapiens, UniProt P21917).
T3 construct: expressed in transfected cells
T3 sequence (P21917 1-419): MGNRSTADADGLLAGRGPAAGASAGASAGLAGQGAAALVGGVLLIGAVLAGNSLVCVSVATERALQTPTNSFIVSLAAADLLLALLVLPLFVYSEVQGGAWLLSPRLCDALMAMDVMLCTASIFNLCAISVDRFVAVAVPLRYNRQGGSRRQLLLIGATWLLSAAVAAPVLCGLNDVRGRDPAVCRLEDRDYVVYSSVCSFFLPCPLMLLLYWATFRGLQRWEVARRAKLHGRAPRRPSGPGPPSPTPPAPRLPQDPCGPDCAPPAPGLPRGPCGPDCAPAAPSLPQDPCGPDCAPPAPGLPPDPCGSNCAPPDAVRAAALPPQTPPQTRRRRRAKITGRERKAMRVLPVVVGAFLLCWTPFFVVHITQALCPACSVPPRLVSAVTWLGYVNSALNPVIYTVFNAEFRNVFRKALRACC
As to the kind of experiment: Binding in cloned human D4 receptors in HEK cells. The settings on record: cloned human D4.4 receptors in HEK 293 cells. As for the experimental part: Human dopamine D2-long (“D2”) and D3 ([…]) receptors were expressed in HEK cells. In brief, stably transfected HEK cells expressing the human D2-long and the D3 dopamine receptor were developed using the pIRES bicistronic expression vector (CLONTECH; Palo Alto, Calif.). The level of expression of D2 or D3 receptors was determined to be greater than 2,000 fmoles/mg protein. For comparison, human dopamine D4 (“D4”) receptors were obtained from HEK 293 cells stably transfected with a PCR product o'f a human cDNA coding for the D4.4 form of the human D4 dopamine receptor. The density of binding sites is approximately 1000 fmol/mg protein.
Methods for performing in vitro dopamine receptor binding studies are described in Huang et al. J. Med. Chem. 44:1815-1826 (2001) and Luedtke et al. Synapse 38:438-439 (2000), the contents of which are hereby incorporated by reference. […] Therefore, ^125I-IABN appears to be a high affinity, selective antagonist at D2-like dopamine receptors.

In the next assay the test system is sigma σ2 binding sites. The settings on record: cited from earlier work.
The subject of a further assay is sigma σ1 binding sites. As to conditions: cited from earlier work.
For assay [4], the target named is T4, human D4.4 dopamine receptors (Homo sapiens, UniProt P21917).
T4 construct: expressed in transfected cells; host or cells: HEK 293 cells
T4 sequence (P21917 1-419): T3 sequence (P21917 1-419)
As to conditions: HEK 293 cells; cited from earlier work.

The target of the next assay is D1a dopamine receptors (Homo sapiens, UniProt P21728). The settings on record: cited from earlier work.
Sequence of D1a dopamine receptors (P21728 whole entry): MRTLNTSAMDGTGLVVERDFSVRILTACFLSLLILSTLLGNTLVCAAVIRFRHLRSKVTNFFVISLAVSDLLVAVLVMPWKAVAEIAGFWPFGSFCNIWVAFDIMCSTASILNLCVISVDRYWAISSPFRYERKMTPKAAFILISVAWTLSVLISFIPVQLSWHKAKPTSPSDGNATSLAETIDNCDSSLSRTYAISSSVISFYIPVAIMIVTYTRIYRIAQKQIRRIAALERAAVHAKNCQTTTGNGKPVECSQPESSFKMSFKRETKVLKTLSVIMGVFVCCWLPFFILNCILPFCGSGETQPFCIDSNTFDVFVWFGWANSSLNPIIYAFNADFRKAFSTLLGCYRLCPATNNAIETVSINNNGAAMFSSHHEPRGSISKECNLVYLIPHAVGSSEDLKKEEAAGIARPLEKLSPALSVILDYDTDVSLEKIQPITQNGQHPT
In the next assay the target is T5, hD3 (Homo sapiens, UniProt P35462).
T5 construct: expressed in transfected cells; host or cells: CHOp- cells, kept under G418
T5 sequence (P35462 whole entry): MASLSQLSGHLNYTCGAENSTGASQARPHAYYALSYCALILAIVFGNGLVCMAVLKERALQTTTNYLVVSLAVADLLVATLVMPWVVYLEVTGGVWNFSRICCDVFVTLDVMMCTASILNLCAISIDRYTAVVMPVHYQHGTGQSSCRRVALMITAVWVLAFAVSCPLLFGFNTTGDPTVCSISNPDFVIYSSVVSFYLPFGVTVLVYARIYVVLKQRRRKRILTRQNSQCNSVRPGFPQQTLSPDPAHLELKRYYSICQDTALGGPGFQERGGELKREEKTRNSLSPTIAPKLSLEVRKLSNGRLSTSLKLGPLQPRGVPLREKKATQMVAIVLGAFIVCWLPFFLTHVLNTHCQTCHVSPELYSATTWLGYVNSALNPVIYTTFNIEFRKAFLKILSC
Briefly: D3 functional assay, stimulation of mitogenesis in CHO cells (agonist assay). As to conditions: for EC50: [3H]thymidine, read-out: Agonist EC50 (nM) ± S.E.M. Type of assay: cell-based. As for the experimental part:
The cells were incubated at 37° C. in α-MEM with 10% FBS, 0.05% penicillin-streptomycin, and 200 μg/mL of G418. After 48 hours, the cells were rinsed twice with serum-free α-MEM and incubated for 24 hours at 37° C. In the functional assay for agonism, the medium was removed and replaced with 90 μl of serum-free α-MEM and 10 μl of test compound in sterile water; in the antagonist assay, the test compound was diluted in sterile water plus 30 nM quinpirole. After another 24-hour incubation at 37° C., 0.25 μCi of [^3H]thymidine was added to each well and the plates were further incubated for 2 hours at 37° C. The cells were then trypsinized, and the plates were filtered and counted as usual in the art. Quinpirole was run on every plate as an internal standard.

[5] abbreviates: cloned human D3 receptors in HEK cells, 125I-IABN, read-out: D3 binding data.

T2 sequence (P35462 whole entry): as above
T1 sequence (P14416 whole entry): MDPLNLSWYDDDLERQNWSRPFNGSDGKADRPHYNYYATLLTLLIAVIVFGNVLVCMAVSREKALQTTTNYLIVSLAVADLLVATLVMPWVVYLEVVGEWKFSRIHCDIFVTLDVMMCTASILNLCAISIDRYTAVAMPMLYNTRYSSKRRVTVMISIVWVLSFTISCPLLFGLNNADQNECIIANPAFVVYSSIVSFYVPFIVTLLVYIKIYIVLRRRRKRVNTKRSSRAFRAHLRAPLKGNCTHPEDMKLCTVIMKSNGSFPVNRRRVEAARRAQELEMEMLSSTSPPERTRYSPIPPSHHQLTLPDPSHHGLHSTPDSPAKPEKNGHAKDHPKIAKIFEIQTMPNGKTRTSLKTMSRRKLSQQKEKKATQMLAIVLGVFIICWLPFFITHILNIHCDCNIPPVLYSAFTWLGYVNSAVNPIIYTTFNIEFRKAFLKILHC

Regarding `O=C(NCC=CCN1CCN(c2cccc(Cl)c2Cl)CC1)c1ccc(I)cc1` [EEC 017, N-{4-[4-(2,3-Dichloro-phenyl)-piperazin-1-yl]-but-2-enyl}-4-iodo-benzamide], the Ki in assay [1] came out at 35.4 ± 7.6 nM; in assay [2] (setting [5]), 4.2 ± 1.5 nM. The D2/D3 in assay [2] was determined as 8. Regarding `O=C(NC/C=C/CN1CCN(c2cccc(Cl)c2Cl)CC1)c1cccc(I)c1` [EEC 019], the Ki in assay [2] (setting [5]) was 3.9 ± 1.2 nM. Regarding `O=C(NC/C=C/CN1CCN(c2cccc(Cl)c2Cl)CC1)c1ccc([N+](=O)[O-])cc1` [EEC 027], the Ki in assay [3] came to 461 ± 187 nM; in assay [2] (setting [5]), 0.6 ± 0.2 nM. Take `O=C(NC/C=C/CN1CCN(c2cccc(Cl)c2Cl)CC1)c1cccc(Cl)c1` [EEC 063]: the Ki in assay [2] (setting [5]) worked out at 2.1 ± 1.1 nM. `COc1ccc(C(=O)NC/C=C/CN2CCN(c3cccc(Cl)c3Cl)CC2)cc1` [EEC 067] returned a Ki in assay [1] of 34.7 ± 11.4 nM. For `COc1cccc(C(=O)NC/C=C/CN2CCN(c3cccc(Cl)c3Cl)CC2)c1` [EEC 069], the results for the Ki in assay [1] and in assay [2] (setting [5]) were 56.9 ± 19.1 nM and 4 ± 1.6 nM, respectively. For the compound `COc1cc([125I])cc(C(=O)NC2CC3CCCC(C2)N3Cc2ccccc2)c1OC` (stereo not drawn) [IABN], the “affinity for sigma σ2 binding sites” value in the assay on sigma σ2 binding sites was “low affinity”. Also, the “affinity for sigma σ1 binding sites” value in the assay with sigma σ1 binding sites is recorded as “low affinity”. The “fold lower affinity at human D4.4 than at D2 and D3 receptors” value in assay [4] is 7- to 10 fold. Moreover, the “affinity for D1a dopamine receptors” value on D1a dopamine receptors was “low affinity”. Take `O=C(NCC#CCN1CCN(c2cccc(Cl)c2Cl)CC1)c1ccccc1` [JJC 2-062]: the results for the Ki in assay [1] and in assay [2] (setting [5]) were 491 ± 108 nM and 127 ± 10 nM, respectively. In general, EC50 refers to the midpoint of the concentration-response curve. `O=C(NC/C=C/CN1CCN(c2cccc(Cl)c2Cl)CC1)c1ccccc1` [JJC 2-068]: the EC50 at hD3 was over 10000 nM. Further, the Ki in assay [2] (setting [5]) was determined as 0.6 ± 0.1 nM.

For `O=C(NC/C=C/CN1CCN(c2cccc(Cl)c2Cl)CC1)c1ccc2c(c1)Cc1ccccc1-2` [JJC 2-071], the “% Max Stim. ± S.E.M.” value on hD3 came out at 44.1 ± 0.9%. Besides, the Ki is 186 ± 8 nM in assay [1] and 3.4 ± 2.9 nM in assay [2] (setting [5]). Take `O=C(NCC#CCN1CCN(c2cccc(Cl)c2Cl)CC1)c1cccc2c1-c1ccccc1C2` [JJC 2-077]: the Ki in assay [1] came out at 592 ± 27 nM; in assay [2] (setting [5]) it was 318 ± 32 nM. With `O=C(NCC#CCN1CCN(c2cccc(Cl)c2Cl)CC1)c1ccc2c(c1)Cc1ccccc1-2` [JJC 2-078], the Ki in assay [1] was 1650 ± 692 nM; in assay [2] (setting [5]) it was 41.5 ± 5.4 nM. Take `O=C(NC/C=C\CN1CCN(c2cccc(Cl)c2Cl)CC1)c1ccccc1` [JJC 2-083]: the EC50 at hD3 is over 10000 nM. As for `O=C(NC/C=C\CN1CCN(c2cccc(Cl)c2Cl)CC1)c1ccc2c(c1)Cc1ccccc1-2` [JJC 2-085], the Ki in assay [1] came to 61.1 ± 19.2 nM; in assay [2] (setting [5]), 3.8 ± 1.4 nM.

With `O=C(NC/C=C/CN1CCN(c2cccc(Cl)c2Cl)CC1)c1ccc(Cl)cc1` [PG01007], the figures for the Ki in assay [1] and in assay [2] (setting [5]) were 25 ± 10.8 nM and 1.6 ± 1 nM, respectively. For `O=C(NC/C=C/CN1CCN(c2cccc(Cl)c2Cl)CC1)c1ccccc1Cl` [PG01009], the Ki in assay [1] was 13.1 ± 5.5 nM. In assay [1], `O=C(NC/C=C/CN1CCN(c2cccc(Cl)c2Cl)CC1)c1ccc(F)cc1` [PG01012] showed a Ki of 8.1 ± 2.7 nM. Regarding `O=C(NCC=CCN1CCN(c2cccc(Cl)c2Cl)CC1)c1ccc(O)cc1` [PG01015, N-{4-[4-(2,3-Dichloro-phenyl)-piperazin-1-yl]-but-2-enyl}-4-hydroxy-benzamide], the Ki was 13.7 ± 4.8 nM in assay [1], 356 ± 26.5 nM in assay [3] and 0.4 nM in assay [2]. In assay [2], the D2/D3 is listed as 34. The compound `O=C(NC/C=C/CN1CCN(c2cccc(Cl)c2Cl)CC1)c1ccccc1I` [PG01018] came in with a Ki in assay [1] of 12.7 ± 4.1 nM. `O=C(NC/C=C/CN1CCN(c2cccc(Cl)c2Cl)CC1)c1cnc2ccccc2n1` [PG01020]: the Ki in assay [1] is 70 ± 7.6 nM; in assay [3], 1110 ± 555 nM. Turning to `O=C(NC/C=C/CN1CCN(c2cccc(Cl)c2Cl)CC1)c1cccnc1` [PG01022], the Ki in assay [1] was 11.2 ± 5.6 nM.

In assay [1], `O=C(NC/C=C/CN1CCN(c2cccc(Cl)c2Cl)CC1)c1ccccc1O` [PG01025] returned a Ki of 7.3 ± 3.2 nM. On the same count and under the same terms, with `COc1ccccc1C(=O)NC/C=C/CN1CCN(c2cccc(Cl)c2Cl)CC1` [PG01027] the figure was 5.3 ± 3 nM. On the same count and under the same terms, the result for `O=C(NC/C=C/CN1CCN(c2cccc(Cl)c2Cl)CC1)c1ccccc1[N+](=O)[O-]` [PG01029] reads 10.5 ± 4.5 nM. `O=C(NC/C=C/CN1CCN(c2cccc(Cl)c2Cl)CC1)c1cc2ccccc2s1` [PG01030] displayed a Ki in assay [2] of 1.3 ± 0.5 nM. Take `O=C(NC/C=C/CN1CCN(c2cccc(Cl)c2Cl)CC1)c1ccccn1` [PG01034]: the Ki in assay [1] was 31.2 ± 3.1 nM; in assay [2], 2 ± 0.6 nM. The compound `O=C(NC/C=C/CN1CCN(c2cccc(Cl)c2Cl)CC1)c1ccncc1` [PG01035] came in with a Ki in assay [1] of 17.2 ± 4.2 nM. Turning to `O=C(NC/C=C/CN1CCN(c2cccc(Cl)c2Cl)CC1)c1ccc(-c2ccccn2)cc1` [PG01037], the figures for the Ki in assay [1] and in assay [3] were 81.9 ± 20.7 nM and 505 ± 62.5 nM, respectively. Consider `Nc1ccccc1C(=O)NC/C=C/CN1CCN(c2cccc(Cl)c2Cl)CC1` [PG01038], for which the Ki was 25.6 ± 6.8 nM in assay [1] and 2.7 ± 0.8 nM in assay [2] (setting [5]). With `O=C(NC/C=C/CN1CCN(c2cccc(Cl)c2Cl)CC1)c1ccc(-c2cccnc2)cc1` [PG01041], the Ki in assay [1] came to 63.3 ± 16.5 nM; in assay [3], 486 ± 157 nM. The compound `O=C(NC/C=C/CN1CCN(c2cccc(Cl)c2Cl)CC1)c1cc2ccccc2o1` [PG01055] showed a Ki in assay [1] of 101 ± 16.9 nM.

(Values after US8119642B2, “Structurally rigid dopamine D3 receptor selective ligands and process for making them” (The United States of America as represented by the …, priority 2002, dated 2012).)
